From patent US20110319379A1, “Substituted Indazole Amides And Their Use As Glucokinase Activators” (priority 2009, published 2011)

The compounds below were run against T1, recombinant human glucokinase (Homo sapiens, UniProt P35557) (assay: Assay 2: Evaluating Activator Potency in a Matrix Assay at Multiple Glucose Concentrations). Details: Assay 2 matrix assay; 16 glucose concentrations; intrinsic EC50 = concentration affording a 50% reduction in the enzyme's Km (for glucose); read-out: Glucokinase EC50.
T1 construct: Full-length glucokinase (beta cell isoform) was His-tagged at the N-terminus and purified by a Ni column followed by size exclusion chromatography as described above; His tag; made in house; host or cells: E. coli BL21(DE3), vector pBCGK
T1 sequence (P35557 1-465): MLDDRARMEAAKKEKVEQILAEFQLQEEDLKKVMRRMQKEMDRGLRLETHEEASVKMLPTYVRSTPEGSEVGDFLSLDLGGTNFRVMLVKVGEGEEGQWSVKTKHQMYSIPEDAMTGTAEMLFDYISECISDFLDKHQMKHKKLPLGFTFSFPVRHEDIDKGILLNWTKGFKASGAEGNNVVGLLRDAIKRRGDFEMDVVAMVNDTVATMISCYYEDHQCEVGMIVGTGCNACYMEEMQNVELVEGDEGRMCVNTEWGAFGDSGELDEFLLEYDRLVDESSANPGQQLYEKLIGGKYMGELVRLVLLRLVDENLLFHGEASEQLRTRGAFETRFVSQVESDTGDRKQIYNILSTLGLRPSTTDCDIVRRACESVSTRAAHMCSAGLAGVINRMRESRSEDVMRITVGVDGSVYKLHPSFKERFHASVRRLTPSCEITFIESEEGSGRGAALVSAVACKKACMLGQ
Assay type: biochemical
Experimental: Representative compounds of this invention were evaluated in biochemical assays (Assay 1 or Assay 2) to characterize their glucokinase activation properties.
The recombinant human glucokinase protein utilized in both assays was prepared and purified as described below.
BL21(DE3) cells (Invitrogen Corporation, Carlsbad, Calif.) containing pBCGK (C or N H is) vector were grown at 37° C. (in 2XYT) until the OD600 was between 0.6-1.0. Expression was induced by addition of isopropylthiogalactoside to a final concentration of 0.1-0.2 mM to the cells which were then incubated overnight at 23° C. The next day, cells were harvested via centrifugation at 5000 rpm for 15 minutes at 4° C. The cell pellet was stored at −80° C. for future purification.
Beta Cell Glucokinase His-Taq Purification Conditions: A Ni-NTA (Quigan, Germantown, Md.) column (15-50 mL) was used for separation. Two buffers were prepared, 1) a lysis/nickel equilibration and wash buffer and 2) a nickel elution buffer. The lysis/equilibration/wash buffer was prepared as such: 25 mM HEPES buffer at pH 7.5, 250 mM NaCl, 20 mM imidazole, and 14 mM β-mercaptoethanol as final concentrations. The elution buffer was prepared as such: 25 mM HEPES at pH 7.5, 250 mM NaCl, 400 mM imidazole, and 14 mM β-mercaptoethanol as final concentrations. The buffers were each filtered with a 0.22 μm filter prior to use. The cell pellet (1 L culture) was resuspended in 300 mL of the lysis/equilibration buffer. The cells were then lysed (3 times) with a Microfluidics Model 110Y microfluidizer (Microfluidics Corporation, Newton, Mass.). The slurry was centrifuged with a Beckman Coulter Model LE-80K ultracentrifuge (Beckman Coulter, Fullerton, Calif.) at 40,000 rpm for 45 minutes at 4° C. The supernatant was transferred to a chilled flask. A volume of 20 μl was saved for gel analysis. A Pharmacia AKTA (GMI, Inc., Ramsey, Minn.) purification system was used for separation. The prime lines were purged with lysis/equilibration buffer. The Ni-NTA column was equilibrated with 200 mL of the lysis/equilibration buffer at a flow rate of 5 mL/minute. The supernantant was loaded over the column at 4 mL/minute and the flow-through was collected in a flask. The unbound proteins were washed with lysis/equilibration buffer at a flow rate of 5 mL/minute until the ultraviolet reaches baseline. The protein was then eluted from the column with the imidazole elution buffer via imidazole gradient 20 mM to 400 mM over 320 mL. The column was then stripped of any additional protein with 80 mL of the elution buffer. The elution fractions were each 8 mL, for a total yield of 50 samples. Fractions were analyzed by sodium dodecyl sulfate polyacrylamide (SDS-PAGE) and the fractions containing protein of interest were pooled and concentrated to 10 mL using ultrafiltration cell with a 10,000 molecular weight cut-off (MWCO) Millipore membrane (Sigma-Aldrich, St. Louis, Mo.) under nitrogen gas (60 psi). Protein was further purified by size exclusion chromatography (SEC) using a […] (320 mL) (Amersham Pharmacia, Uppsala, Sweden). SEC was equilibrated with 450 mL sizing buffer containing 25 mM HEPES pH 7.0, 50 mM NaCl, and 5 mM dithiothreitol. Concentrated protein was then loaded over SEC and elution with 400 mL sizing buffer was performed overnight at 0.5 mL/minute. The elution fractions were 5 mL each. The fractions were analyzed by SDS-PAGE and protein containing fractions were pooled. Concentration was measured using Bradford Assay/BSA Standard. Purified protein was stored in small aliquots at −80° C.
Assay 2: Evaluating Activator Potency in a Matrix Assay at Multiple Glucose Concentrations
Utilizing an adaptation of this method, representative compounds of the current invention were evaluated at 22 different concentrations and 16 different glucose concentrations in a coupled enzyme assay system that detects glucokinase activity via depletion of β-NADH.

**Q.** `CCn1cc2c(Oc3ccc(S(C)(=O)=O)cc3)cc(C(=O)Nc3cnn(C)n3)cc2n1` [Example 1CA, 2-ethyl-4-[4-(methylsulfonyl)phenoxy]-N-(2-methyl-2H-1,2,3-triazol-4-yl)-2H-indazole-6-carboxamide] was tested. Which EC50 did it give?
**A.** The EC50 was 8520 nM.

**Q.** With `CCn1cc2c(Oc3ccc(S(C)(=N)=O)cc3)cc(C(=O)Nc3ccn(C)n3)cc2n1` (stereo not shown) [Example 1CY, 2-ethyl-N-(1-methyl-1H-pyrazol-3-yl)-4-[4-(S-methylsulfonimidoyl)phenoxy]-2H-indazole-6-carboxamide] as the compound, how does the EC50 read?
**A.** The EC50 was 2470 nM.

**Q.** `Cn1cc2c(Oc3cnc(C(=O)N4CCCC4)cn3)cc(C(=O)Nc3cnn(C)n3)cc2n1` [Example 1BW, 2-methyl-N-(2-methyl-2H-1,2,3-triazol-4-yl)-4-(5-(pyrrolidine-1-carbonyl)pyrazin-2-yloxy)-2H-indazole-6-carboxamide] was tested. Which EC50 did it give?
**A.** Its EC50 is 4640 nM.

**Q.** `CCn1cc2c(Oc3cnc(C(=O)N(C)C)cn3)cc(C(=O)Nc3cnc(OC)cn3)cc2n1` [Example 1AF, 4-(5-(dimethylcarbamoyl)pyrazin-2-yloxy)-2-ethyl-N-(5-methoxypyrazin-2-yl)-2H-indazole-6-carboxamide] was tested. Which EC50 did it give?
**A.** Its EC50 is 532 nM.

**Q.** For `CCn1cc2c(Oc3cnc(C(=O)N(C)C)nc3)cc(C(=O)Nc3ccc(C)cn3)cc2n1` [Example 1BD, 4-(2-(dimethylcarbamoyl)pyrimidin-5-yloxy)-2-ethyl-N-(5-methylpyridin-2-yl)-2H-indazole-6-carboxamide], which EC50 is on record?
**A.** Its EC50 is 383 nM.

**Q.** For `CCn1cc2c(Oc3cnc(C(=O)N4CCC4)cn3)cc(C(=O)Nc3cnc(C)cn3)cc2n1` [Example 1BR, 4-(5-(azetidine-1-carbonyl)pyrazin-2-yloxy)-2-ethyl-N-(5-methylpyrazin-2-yl)-2H-indazole-6-carboxamide], which EC50 is on record?
**A.** Its EC50 is 790 nM.

**Q.** How did the EC50 turn out when `Cn1ccc(NC(=O)c2cc(Oc3cnc(C(=O)N4CCCC4)cn3)c3cn(C)nc3c2)n1` [Example 1BO, 2-methyl-N-(1-methyl-1H-pyrazol-3-yl)-4-(5-(pyrrolidine-1-carbonyl)pyrazin-2-yloxy)-2H-indazole-6-carboxamide] was run?
**A.** The EC50 was 250 nM.

**Q.** For `CN(C)S(=O)(=O)c1ccc(Oc2cc(C(=O)Nc3ccn(C)n3)cc3nn(C)cc23)cn1` [Example 1AM, 4-({6-[(dimethylamino)sulfonyl]pyridin-3-yl}oxy)-2-methyl-N-(1-methyl-1H-pyrazol-3-yl)-2H-indazole-6-carboxamide], which EC50 is on record?
**A.** The EC50 was 3880 nM.

**Q.** Which EC50 does the source give for `CC(C)n1cc2c(Oc3cnc(C(=O)N4CCC4)cn3)cc(C(=O)Nc3ccn(C)n3)cc2n1` [Example 1BT, 4-(5-(azetidine-1-carbonyl)pyrazin-2-yloxy)-2-isopropyl-N-(1-methyl-1H-pyrazol-3-yl)-2H-indazole-6-carboxamide] here?
**A.** The EC50 was 979 nM.

**Q.** Which EC50 does the source give for `CCn1cc2c(Oc3cnc(NS(C)(=O)=O)cn3)cc(C(=O)Nc3ccc(C)cn3)cc2n1` [Example 1AT, 2-ethyl-N-(5-methylpyridin-2-yl)-4-({5-[(methylsulfonyl)amino]pyrazin-2-yl}oxy)-2H-indazole-6-carboxamide] here?
**A.** The EC50 was 4920 nM.

**Q.** Which EC50 does the source give for `CC(C)n1cc2c(Oc3cnc(C(=O)N(C)C)cn3)cc(C(=O)Nc3ccn(C)n3)cc2n1` [Example 1BV, 4-(5-(dimethylcarbamoyl)pyrazin-2-yloxy)-2-isopropyl-N-(1-methyl-1H-pyrazol-3-yl)-2H-indazole-6-carboxamide] here?
**A.** Its EC50 is 1590 nM.

**Q.** With `CCn1cc2c(Oc3ccc(S(C)(=N)=O)cc3)cc(C(=O)Nc3ccc(C)cn3)cc2n1` (single isomer, unassigned) [Example 1CW, 2-ethyl-N-(5-methylpyridin-2-yl)-4-[4-(S-methylsulfonimidoyl)phenoxy]-2H-indazole-6-carboxamide] as the compound, how does the EC50 read?
**A.** Its EC50 is 555 nM.

**Q.** `CCS(=O)(=O)N(C)c1cnc(Oc2cc(C(=O)Nc3ccc(C)cn3)cc3nn(C)cc23)cn1` [Example 1AY, 4-({5-[(ethylsulfonyl)(methyl)amino]pyrazin-2-yl}oxy)-2-methyl-N-(5-methylpyridin-2-yl)-2H-indazole-6-carboxamide] was tested. Which EC50 did it give?
**A.** Its EC50 is 673 nM.

**Q.** How did the EC50 turn out when `CCn1cc2c(Oc3ccc(S(C)(=O)=O)cc3)cc(C(=O)Nc3ccc(F)cn3)cc2n1` [Example 1CI, 2-ethyl-N-(5-fluoropyridin-2-yl)-4-[4-(methylsulfonyl)phenoxy]-2H-indazole-6-carboxamide] was run?
**A.** The EC50 was 714 nM.

**Q.** With `Cc1cnc(NC(=O)c2cc(Oc3ccc(S(C)(=O)=O)nc3)c3cn(C)nc3c2)cn1` [Example 1AQ, 2-methyl-N-(5-methylpyrazin-2-yl)-4-{[6-(methylsulfonyl)pyridin-3-yl]oxy}-2H-indazole-6-carboxamide] as the compound, how does the EC50 read?
**A.** The EC50 was 5370 nM.

**Q.** With `CCn1cc2c(Oc3ccc(S(C)(=N)=O)cc3)cc(C(=O)Nc3ccc(C)cn3)cc2n1` (single isomer, unassigned) [Example 1CX, 2-ethyl-N-(5-methylpyridin-2-yl)-4-[4-(S-methylsulfonimidoyl)phenoxy]-2H-indazole-6-carboxamide] as the compound, how does the EC50 read?
**A.** Its EC50 is 1370 nM.

**Q.** With `CCn1cc2c(Oc3ccc(S(C)(=O)=O)cc3)cc(C(=O)Nc3ccn(CC(N)=O)n3)cc2n1` [Example 1CG, N-[1-(2-amino-2-oxoethyl)-1H-pyrazol-3-yl]-2-ethyl-4-[4-(methylsulfonyl)phenoxy]-2H-indazole-6-carboxamide] as the compound, how does the EC50 read?
**A.** Its EC50 is 1490 nM.

**Q.** `Cc1cnc(NC(=O)c2cc(Oc3cnc(C(=O)N4CCC4)c(F)c3)c3cn(C)nc3c2)cn1` [Example 1BC, 4-(6-(azetidine-1-carbonyl)-5-fluoropyridin-3-yloxy)-2-methyl-N-(5-methylpyrazin-2-yl)-2H-indazole-6-carboxamide] was tested. Which EC50 did it give?
**A.** The EC50 was 368 nM.

**Q.** `CCn1cc2c(Oc3cnc(C(N)=O)cn3)cc(C(=O)Nc3ccc(C)cn3)cc2n1` [Example 1CO, 4-(5-carbamoylpyrazin-2-yloxy)-2-ethyl-N-(5-methylpyridin-2-yl)-2H-indazole-6-carboxamide] was tested. Which EC50 did it give?
**A.** Its EC50 is 1880 nM.

**Q.** How did the EC50 turn out when `CC(=O)N(C)c1cnc(Oc2cc(C(=O)Nc3ccc(C)cn3)cc3nn(C)cc23)cn1` [Example 1CN, 2-methyl-4-(5-(N-methylacetamido)pyrazin-2-yloxy)-N-(5-methylpyridin-2-yl)-2H-indazole-6-carboxamide] was run?
**A.** Its EC50 is 2320 nM.

Same assay, conditions: Glucokinase EC50, Assay 2 matrix assay; 16 glucose concentrations; intrinsic EC50 = concentration affording a 50% reduction in the enzyme's Km (for glucose)

**Q.** With `Cc1cnc(NC(=O)c2cc(Oc3ccc(S(=O)(=O)N(C)C)cc3)c3cn(C)nc3c2)cn1` [Example 1AI, 4-{4-[(dimethylamino)sulfonyl]phenoxy}-2-methyl-N-(5-methylpyrazin-2-yl)-2H-indazole-6-carboxamide] as the compound, how does the EC50 read?
**A.** The EC50 was 431 nM.

**Q.** Which EC50 does the source give for `CCn1cc2c(Oc3cnc(C(=O)N4CCC4)c(F)c3)cc(C(=O)Nc3ccn(C)n3)cc2n1` [Example 1BA, 4-(6-(azetidine-1-carbonyl)-5-fluoropyridin-3-yloxy)-2-ethyl-N-(1-methyl-1H-pyrazol-3-yl)-2H-indazole-6-carboxamide] here?
**A.** The EC50 was 191 nM.
